One data set addresses Histamine H3 receptor (Rattus norvegicus, UniProt Q9QYN8). The data set can be described thus: Displacement of N-[3H]methylhistamine from histamine H3 receptor in rat cortex.
The species named for data set [1] is Homo sapiens. The data set can be described thus: Selectivity for human histamine H3 receptor over human histamine H1 receptor.
Data set [2] is filed under the species Homo sapiens. Kind of data set: Selectivity for human histamine H3 receptor over human histamine H2 receptor.
For data set [3], the species on record is Homo sapiens. Kind of data set: Selectivity for human histamine H3 receptor over human histamine H4 receptor.
Data set [4] in a line: Oral bioavailability in rat. The class given is ADME, organism-based. Particulars: in vivo.
The nature of data set [5]: Half life in rat. The data set is classed as ADME, organism-based. Particulars: in vivo.
For a further data set, the species on record is Rattus norvegicus. Kind of data set: Inhibition of R-alpha-methylhistamine-induced drinking response in rat dipsogenia model. The class given is functional.
The target of data set [6] is Histamine H3 receptor (Rattus norvegicus) (UniProt Q9QYN8). The data set can be described thus: Displacement of N-[3H]methylhistamine from histamine H3 receptor in rat cortex at < 5 uM.

SMILES strings stand for the structures. The source made the active and inactive calls. No cut-off for these calls is given here. Where only a bound is given, the exact number is not on record here.

Chain of Histamine H3 receptor (Q9QYN8 whole entry): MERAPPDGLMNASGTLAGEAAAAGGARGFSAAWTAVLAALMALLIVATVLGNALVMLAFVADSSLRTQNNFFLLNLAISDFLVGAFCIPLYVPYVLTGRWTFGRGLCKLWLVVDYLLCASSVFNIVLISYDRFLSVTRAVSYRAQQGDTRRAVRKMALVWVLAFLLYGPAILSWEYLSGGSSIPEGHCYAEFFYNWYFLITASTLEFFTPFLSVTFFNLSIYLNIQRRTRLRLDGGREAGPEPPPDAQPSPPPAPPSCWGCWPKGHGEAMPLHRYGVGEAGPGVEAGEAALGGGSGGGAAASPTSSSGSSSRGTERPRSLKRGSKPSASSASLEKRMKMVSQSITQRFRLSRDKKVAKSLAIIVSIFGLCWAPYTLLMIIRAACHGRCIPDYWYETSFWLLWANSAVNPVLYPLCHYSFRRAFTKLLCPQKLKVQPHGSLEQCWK
Chain of Histamine H3 receptor (Rattus norvegicus) (Q9QYN8 whole entry): as above

Usually Ki stands for the dissociation constant of the complex between target and ligand, obtained from inhibition or displacement. Turning to `FC1(F)CCN(CCc2ccc(C3=CCC4CN(Cc5ccccc5)CC34)cc2)C1` (stereo not drawn), the inhibition constant Ki at Histamine H3 receptor (read-out: Ki) stood at 2.8 nM.

Usually bioavailability stands for dose-corrected exposure relative to a reference, in per cent. As usually defined, the half-life is how long it takes for the measured level to halve. With `C1=C(c2ccc(CCN3CCCC3)cc2)[C@@H]2CN(CC3CC3)C[C@@H]2C1`, the Ki at Histamine H3 receptor (read-out: Ki) is 0.07 nM. In addition, the Selectivity ratio in the data set filed under Homo sapiens [1], in the data set listed under Homo sapiens [2] and in the data set filed under Homo sapiens [3] was greater than 1000 throughout. This molecule also returned a bioavailability in data set [4] of 78%. This molecule also gave a half-life in data set [5] of 6 h. In addition, the Activity entry in the data set filed under Rattus norvegicus was “Dose-dependent effect”. Moreover, in the data set listed under Rattus norvegicus (read-out: MED), the minimal effective dose was 3 mg/kg.

As to `C1=C(c2ccc(CCN3CCCC3)cc2)[C@@H]2CN(Cc3ccccc3)C[C@@H]2C1`, the Ki on Histamine H3 receptor (read-out: Ki) stood at 0.05 nM. The Selectivity ratio in the data set listed under Homo sapiens [1], in the data set filed under Homo sapiens [2] and in the data set filed under Homo sapiens [3] was greater than 1000 throughout.

For `C1=C(c2ccc(CCN3CCOCC3)cc2)C2CN(Cc3ccccc3)CC2C1` (stereo not drawn), the inhibitory constant (Ki) at Histamine H3 receptor (read-out: Ki) was 1.7 nM.

Turning to `C1=C(c2ccc(CCN3CCCC3)cc2)[C@H]2CN(Cc3ccccc3)C[C@H]2C1`, the inhibition constant (Ki) at Histamine H3 receptor (read-out: Ki) was determined as 0.75 nM.

`CC(C)N1C[C@@H]2CC=C(c3ccc(CCN4CCCC4)cc3)[C@@H]2C1`: the Ki at Histamine H3 receptor (read-out: Ki) was 0.29 nM.

With `C1=C(c2ccc(CCN3CCC3)cc2)C2CN(Cc3ccccc3)CC2C1` (stereo not drawn), the Ki on Histamine H3 receptor (read-out: Ki) is 2.4 nM.

Consider `OC[C@H]1CCCN1CCc1ccc(C2=CCC3CN(Cc4ccccc4)CC23)cc1` (stereo partly drawn), for which, on Histamine H3 receptor (read-out: Ki), the Ki was determined as 0.51 nM.

Take `CN1CCN(CCc2ccc(C3=CCC4CN(Cc5ccccc5)CC34)cc2)CC1` (stereo not drawn): the Ki on Histamine H3 receptor (read-out: Ki) was determined as 58 nM.

On to `C1=C(c2ccc(CCN3Cc4ccccc4C3)cc2)C2CN(Cc3ccccc3)CC2C1` (stereo not drawn), for which, at Histamine H3 receptor (read-out: Ki), the inhibitory constant (Ki) amounted to 256 nM.

On to `C1=C(c2ccc(CCN3CCCC3)cc2)C2CN(c3ncccn3)CC2C1` (stereo not drawn), for which the Ki on Histamine H3 receptor (read-out: Ki) was found to be 36 nM.

On to `C1=C(c2ccc(CCN3CCCC3)cc2)C2CN(CC3CC3)CC2C1` (racemic), for which the Ki is 0.1 nM at Histamine H3 receptor (read-out: Ki) and 0.112 nM on Histamine H3 receptor (read-out: Log Ki (converted)).

Turning to `C1=C(c2ccc(CCN3CCc4ccccc43)cc2)C2CN(Cc3ccccc3)CC2C1` (stereo not drawn), the outcome in data set [6] was inactive.

Regarding `C1=C(c2ccc(CCN3CCCC3)cc2)C2CN(C3CCCC3)CC2C1` (racemic), the Ki on Histamine H3 receptor (read-out: Ki) came out at 0.4 nM.

Take `CC(C)N1CC2CC=C(c3ccc(CCN4CCCC4)cc3)C2C1` (racemic): the Ki on Histamine H3 receptor (read-out: Ki) came out at 0.9 nM.

For the molecule `CN(C)CCc1ccc(C2=CCC3CN(Cc4ccccc4)CC23)cc1` (stereo not drawn), the Ki on Histamine H3 receptor (read-out: Ki) was found to be 2.3 nM.

As for `C1=C(c2ccc(CCN3CCCC3)cc2)C2CN(c3cncnc3)CC2C1` (stereo not drawn), the Ki at Histamine H3 receptor (read-out: Ki) worked out at 7 nM.

Take `C1=C(c2ccc(CCN3CCCC3)cc2)C2CN(c3ccccc3)CC2C1` (stereo not drawn): at Histamine H3 receptor (read-out: Ki), the Ki was 67 nM.

As to `C1=C(c2ccc(CCN3CCCC3)cc2)[C@@H]2CN(C3CCCC3)C[C@@H]2C1`, at Histamine H3 receptor (read-out: Ki), the Ki stood at 0.08 nM.

For the molecule `OC[C@@H]1CCCN1CCc1ccc(C2=CCC3CN(Cc4ccccc4)CC23)cc1` (stereo partly drawn), at Histamine H3 receptor (read-out: Ki), the inhibition constant (Ki) was 0.16 nM.

`C1=C(c2ccc(CCN3CCCC3)cc2)C2CN(c3ccccn3)CC2C1` (stereo not drawn): at Histamine H3 receptor (read-out: Ki), the Ki was found to be 2 nM.

For the molecule `CC1CCCN1CCc1ccc(C2=CCC3CN(Cc4ccccc4)CC23)cc1` (stereo not drawn), on Histamine H3 receptor (read-out: Ki), the Ki came out at 0.05 nM.

Turning to `C1=C(c2ccc(CCN3CCCCC3)cc2)C2CN(Cc3ccccc3)CC2C1` (stereo not drawn), on Histamine H3 receptor (read-out: Ki), the Ki is 0.4 nM.

As for `C1=C(c2ccc(CCN3CCCC3)cc2)C2CN(Cc3ccccc3)CC2C1` (stereo not drawn), at Histamine H3 receptor (read-out: Ki), the Ki amounted to 0.3 nM.

As for `O=C1CCCN1CCc1ccc(C2=CCC3CN(Cc4ccccc4)CC23)cc1` (stereo not drawn), the Ki is 310 nM on Histamine H3 receptor (read-out: Ki) and 132 nM on Histamine H3 receptor (read-out: Log Ki (converted)).

With `C[C@H]1[C@H]2CC[C@H]3[C@@H]4CC=C5C[C@@H](N(C)C)CC[C@]5(C)[C@H]4CC[C@]23CN1C` [CONESSINE], the inhibition constant (Ki) on Histamine H3 receptor (read-out: Ki) was determined as 66 nM.
